Assay results taken from the NIST ThermoML archive (doi:10.1021/je800224k).

CCn1cc[n+](C)c1.F[P-](F)(F)(F)(F)F [1-ethyl-3-methylimidazolium hexafluorophosphate]
Conditions | mass density [kg/m3]
312.8 K, 10000 kPa, Crystal, Bellows volumetry | 1562
312.8 K, 20000 kPa, Crystal, Bellows volumetry | 1565
312.8 K, 30000 kPa, Crystal, Bellows volumetry | 1569
312.8 K, 40000 kPa, Crystal, Bellows volumetry | 1572
312.8 K, 50000 kPa, Crystal, Bellows volumetry | 1576
312.8 K, 60000 kPa, Crystal, Bellows volumetry | 1579
312.8 K, 70000 kPa, Crystal, Bellows volumetry | 1582
312.8 K, 80000 kPa, Crystal, Bellows volumetry | 1585
312.8 K, 90000 kPa, Crystal, Bellows volumetry | 1588
312.8 K, 100000 kPa, Crystal, Bellows volumetry | 1591
312.8 K, 110000 kPa, Crystal, Bellows volumetry | 1594
312.8 K, 120000 kPa, Crystal, Bellows volumetry | 1597
312.8 K, 130000 kPa, Crystal, Bellows volumetry | 1600
312.8 K, 140000 kPa, Crystal, Bellows volumetry | 1603
312.8 K, 150000 kPa, Crystal, Bellows volumetry | 1606
312.8 K, 160000 kPa, Crystal, Bellows volumetry | 1609
312.8 K, 170000 kPa, Crystal, Bellows volumetry | 1612
312.8 K, 180000 kPa, Crystal, Bellows volumetry | 1615
312.8 K, 190000 kPa, Crystal, Bellows volumetry | 1617
312.8 K, 200000 kPa, Crystal, Bellows volumetry | 1620
332.7 K, 10000 kPa, Crystal, Bellows volumetry | 1546
332.7 K, 20000 kPa, Crystal, Bellows volumetry | 1550
332.7 K, 30000 kPa, Crystal, Bellows volumetry | 1554
332.7 K, 40000 kPa, Crystal, Bellows volumetry | 1557
332.7 K, 50000 kPa, Crystal, Bellows volumetry | 1561
332.7 K, 60000 kPa, Crystal, Bellows volumetry | 1564
332.7 K, 70000 kPa, Crystal, Bellows volumetry | 1567
332.7 K, 80000 kPa, Crystal, Bellows volumetry | 1571
332.7 K, 90000 kPa, Crystal, Bellows volumetry | 1574
332.7 K, 100000 kPa, Crystal, Bellows volumetry | 1577
332.7 K, 110000 kPa, Crystal, Bellows volumetry | 1581
332.7 K, 120000 kPa, Crystal, Bellows volumetry | 1584
332.7 K, 130000 kPa, Crystal, Bellows volumetry | 1587
332.7 K, 140000 kPa, Crystal, Bellows volumetry | 1590
332.7 K, 150000 kPa, Crystal, Bellows volumetry | 1593
332.7 K, 160000 kPa, Crystal, Bellows volumetry | 1596
332.7 K, 170000 kPa, Crystal, Bellows volumetry | 1599
332.7 K, 180000 kPa, Crystal, Bellows volumetry | 1602
332.7 K, 190000 kPa, Crystal, Bellows volumetry | 1605
332.7 K, 200000 kPa, Crystal, Bellows volumetry | 1608
352.7 K, 10000 kPa, Liquid, Bellows volumetry | 1428
352.7 K, 20000 kPa, Liquid, Bellows volumetry | 1434
352.7 K, 30000 kPa, Liquid, Bellows volumetry | 1440
352.7 K, 40000 kPa, Liquid, Bellows volumetry | 1446
352.7 K, 50000 kPa, Liquid, Bellows volumetry | 1451
352.7 K, 60000 kPa, Liquid, Bellows volumetry | 1456
352.7 K, 70000 kPa, Liquid, Bellows volumetry | 1461
352.7 K, 80000 kPa, Liquid, Bellows volumetry | 1466
352.7 K, 90000 kPa, Liquid, Bellows volumetry | 1471
352.7 K, 100000 kPa, Crystal, Bellows volumetry | 1562
352.7 K, 110000 kPa, Crystal, Bellows volumetry | 1566
352.7 K, 120000 kPa, Crystal, Bellows volumetry | 1570
352.7 K, 130000 kPa, Crystal, Bellows volumetry | 1573
352.7 K, 140000 kPa, Crystal, Bellows volumetry | 1576
352.7 K, 150000 kPa, Crystal, Bellows volumetry | 1580
352.7 K, 160000 kPa, Crystal, Bellows volumetry | 1583
352.7 K, 170000 kPa, Crystal, Bellows volumetry | 1586
352.7 K, 180000 kPa, Crystal, Bellows volumetry | 1589
352.7 K, 190000 kPa, Crystal, Bellows volumetry | 1592
352.7 K, 200000 kPa, Crystal, Bellows volumetry | 1595
353.15 K, 101.33 kPa, Liquid, Vibrating tube method | 1421.8
372.8 K, 10000 kPa, Liquid, Bellows volumetry | 1410
372.8 K, 20000 kPa, Liquid, Bellows volumetry | 1416
372.8 K, 30000 kPa, Liquid, Bellows volumetry | 1423
372.8 K, 40000 kPa, Liquid, Bellows volumetry | 1428
372.8 K, 50000 kPa, Liquid, Bellows volumetry | 1434
372.8 K, 60000 kPa, Liquid, Bellows volumetry | 1439
372.8 K, 70000 kPa, Liquid, Bellows volumetry | 1445
372.8 K, 80000 kPa, Liquid, Bellows volumetry | 1450
372.8 K, 90000 kPa, Liquid, Bellows volumetry | 1455
372.8 K, 100000 kPa, Liquid, Bellows volumetry | 1460
372.8 K, 110000 kPa, Liquid, Bellows volumetry | 1465
372.8 K, 120000 kPa, Liquid, Bellows volumetry | 1470
372.8 K, 130000 kPa, Liquid, Bellows volumetry | 1474
372.8 K, 140000 kPa, Liquid, Bellows volumetry | 1479
372.8 K, 150000 kPa, Liquid, Bellows volumetry | 1483
372.8 K, 160000 kPa, Liquid, Bellows volumetry | 1488
372.8 K, 170000 kPa, Liquid, Bellows volumetry | 1492
372.8 K, 180000 kPa, Liquid, Bellows volumetry | 1497
372.8 K, 190000 kPa, Liquid, Bellows volumetry | 1501
372.8 K, 200000 kPa, Liquid, Bellows volumetry | 1505
373.15 K, 101.33 kPa, Liquid, Vibrating tube method | 1404.9
392.9 K, 10000 kPa, Liquid, Bellows volumetry | 1393
392.9 K, 20000 kPa, Liquid, Bellows volumetry | 1400
392.9 K, 30000 kPa, Liquid, Bellows volumetry | 1406
392.9 K, 40000 kPa, Liquid, Bellows volumetry | 1412
392.9 K, 50000 kPa, Liquid, Bellows volumetry | 1418
392.9 K, 60000 kPa, Liquid, Bellows volumetry | 1424
392.9 K, 70000 kPa, Liquid, Bellows volumetry | 1429
392.9 K, 80000 kPa, Liquid, Bellows volumetry | 1435
392.9 K, 90000 kPa, Liquid, Bellows volumetry | 1440
392.9 K, 100000 kPa, Liquid, Bellows volumetry | 1445
392.9 K, 110000 kPa, Liquid, Bellows volumetry | 1450
392.9 K, 120000 kPa, Liquid, Bellows volumetry | 1455
392.9 K, 130000 kPa, Liquid, Bellows volumetry | 1460
392.9 K, 140000 kPa, Liquid, Bellows volumetry | 1464
392.9 K, 150000 kPa, Liquid, Bellows volumetry | 1469
392.9 K, 160000 kPa, Liquid, Bellows volumetry | 1474
392.9 K, 170000 kPa, Liquid, Bellows volumetry | 1478
392.9 K, 180000 kPa, Liquid, Bellows volumetry | 1483
392.9 K, 190000 kPa, Liquid, Bellows volumetry | 1487
392.9 K, 200000 kPa, Liquid, Bellows volumetry | 1491
412.9 K, 10000 kPa, Liquid, Bellows volumetry | 1377
412.9 K, 20000 kPa, Liquid, Bellows volumetry | 1384
412.9 K, 30000 kPa, Liquid, Bellows volumetry | 1390
412.9 K, 40000 kPa, Liquid, Bellows volumetry | 1397
412.9 K, 50000 kPa, Liquid, Bellows volumetry | 1403
412.9 K, 60000 kPa, Liquid, Bellows volumetry | 1408
412.9 K, 70000 kPa, Liquid, Bellows volumetry | 1414
412.9 K, 80000 kPa, Liquid, Bellows volumetry | 1420
412.9 K, 90000 kPa, Liquid, Bellows volumetry | 1425
412.9 K, 100000 kPa, Liquid, Bellows volumetry | 1431
412.9 K, 110000 kPa, Liquid, Bellows volumetry | 1436
412.9 K, 120000 kPa, Liquid, Bellows volumetry | 1441
412.9 K, 130000 kPa, Liquid, Bellows volumetry | 1446
412.9 K, 140000 kPa, Liquid, Bellows volumetry | 1451
412.9 K, 150000 kPa, Liquid, Bellows volumetry | 1456
412.9 K, 160000 kPa, Liquid, Bellows volumetry | 1460
412.9 K, 170000 kPa, Liquid, Bellows volumetry | 1465
412.9 K, 180000 kPa, Liquid, Bellows volumetry | 1469
412.9 K, 190000 kPa, Liquid, Bellows volumetry | 1474
412.9 K, 200000 kPa, Liquid, Bellows volumetry | 1478
432.6 K, 10000 kPa, Liquid, Bellows volumetry | 1360
432.6 K, 20000 kPa, Liquid, Bellows volumetry | 1367
432.6 K, 30000 kPa, Liquid, Bellows volumetry | 1374
432.6 K, 40000 kPa, Liquid, Bellows volumetry | 1381
432.6 K, 50000 kPa, Liquid, Bellows volumetry | 1387
432.6 K, 60000 kPa, Liquid, Bellows volumetry | 1393
432.6 K, 70000 kPa, Liquid, Bellows volumetry | 1399
432.6 K, 80000 kPa, Liquid, Bellows volumetry | 1405
432.6 K, 90000 kPa, Liquid, Bellows volumetry | 1411
432.6 K, 100000 kPa, Liquid, Bellows volumetry | 1417
432.6 K, 110000 kPa, Liquid, Bellows volumetry | 1422
432.6 K, 120000 kPa, Liquid, Bellows volumetry | 1427
432.6 K, 130000 kPa, Liquid, Bellows volumetry | 1432
432.6 K, 140000 kPa, Liquid, Bellows volumetry | 1437
432.6 K, 150000 kPa, Liquid, Bellows volumetry | 1442
432.6 K, 160000 kPa, Liquid, Bellows volumetry | 1447
432.6 K, 170000 kPa, Liquid, Bellows volumetry | 1451
432.6 K, 180000 kPa, Liquid, Bellows volumetry | 1456
432.6 K, 190000 kPa, Liquid, Bellows volumetry | 1461
432.6 K, 200000 kPa, Liquid, Bellows volumetry | 1465
452.5 K, 10000 kPa, Liquid, Bellows volumetry | 1344
452.5 K, 20000 kPa, Liquid, Bellows volumetry | 1351
452.5 K, 30000 kPa, Liquid, Bellows volumetry | 1359
452.5 K, 40000 kPa, Liquid, Bellows volumetry | 1366
452.5 K, 50000 kPa, Liquid, Bellows volumetry | 1372
452.5 K, 60000 kPa, Liquid, Bellows volumetry | 1379
452.5 K, 70000 kPa, Liquid, Bellows volumetry | 1385
452.5 K, 80000 kPa, Liquid, Bellows volumetry | 1391
452.5 K, 90000 kPa, Liquid, Bellows volumetry | 1397
452.5 K, 100000 kPa, Liquid, Bellows volumetry | 1402
452.5 K, 110000 kPa, Liquid, Bellows volumetry | 1408
452.5 K, 120000 kPa, Liquid, Bellows volumetry | 1414
452.5 K, 130000 kPa, Liquid, Bellows volumetry | 1419
452.5 K, 140000 kPa, Liquid, Bellows volumetry | 1423
452.5 K, 150000 kPa, Liquid, Bellows volumetry | 1429
452.5 K, 160000 kPa, Liquid, Bellows volumetry | 1434
452.5 K, 170000 kPa, Liquid, Bellows volumetry | 1439
452.5 K, 180000 kPa, Liquid, Bellows volumetry | 1444
452.5 K, 190000 kPa, Liquid, Bellows volumetry | 1448
452.5 K, 200000 kPa, Liquid, Bellows volumetry | 1453
472.4 K, 10000 kPa, Liquid, Bellows volumetry | 1327
472.4 K, 20000 kPa, Liquid, Bellows volumetry | 1336
472.4 K, 30000 kPa, Liquid, Bellows volumetry | 1344
472.4 K, 40000 kPa, Liquid, Bellows volumetry | 1351
472.4 K, 50000 kPa, Liquid, Bellows volumetry | 1358
472.4 K, 60000 kPa, Liquid, Bellows volumetry | 1364
472.4 K, 70000 kPa, Liquid, Bellows volumetry | 1371
472.4 K, 80000 kPa, Liquid, Bellows volumetry | 1377
472.4 K, 90000 kPa, Liquid, Bellows volumetry | 1383
472.4 K, 100000 kPa, Liquid, Bellows volumetry | 1389
472.4 K, 110000 kPa, Liquid, Bellows volumetry | 1395
472.4 K, 120000 kPa, Liquid, Bellows volumetry | 1400
472.4 K, 130000 kPa, Liquid, Bellows volumetry | 1405
472.4 K, 140000 kPa, Liquid, Bellows volumetry | 1411
472.4 K, 150000 kPa, Liquid, Bellows volumetry | 1416
472.4 K, 160000 kPa, Liquid, Bellows volumetry | 1421
472.4 K, 170000 kPa, Liquid, Bellows volumetry | 1426
472.4 K, 180000 kPa, Liquid, Bellows volumetry | 1431
472.4 K, 190000 kPa, Liquid, Bellows volumetry | 1436
472.4 K, 200000 kPa, Liquid, Bellows volumetry | 1440
